Experimental findings from patent publication US8173648B2 (priority 2008, dated 2012) are described below.

Like-named read-outs stand apart in the source and are kept apart here.

Assay [1] has as its target T1, monoamine oxidase B (MAO-B) (Rattus norvegicus, UniProt P19643).
T1 construct: from tissue; host or cells: brain cortex of male F344/N rats (supernatant of homogenate)
T1 sequence (P19643 1-520): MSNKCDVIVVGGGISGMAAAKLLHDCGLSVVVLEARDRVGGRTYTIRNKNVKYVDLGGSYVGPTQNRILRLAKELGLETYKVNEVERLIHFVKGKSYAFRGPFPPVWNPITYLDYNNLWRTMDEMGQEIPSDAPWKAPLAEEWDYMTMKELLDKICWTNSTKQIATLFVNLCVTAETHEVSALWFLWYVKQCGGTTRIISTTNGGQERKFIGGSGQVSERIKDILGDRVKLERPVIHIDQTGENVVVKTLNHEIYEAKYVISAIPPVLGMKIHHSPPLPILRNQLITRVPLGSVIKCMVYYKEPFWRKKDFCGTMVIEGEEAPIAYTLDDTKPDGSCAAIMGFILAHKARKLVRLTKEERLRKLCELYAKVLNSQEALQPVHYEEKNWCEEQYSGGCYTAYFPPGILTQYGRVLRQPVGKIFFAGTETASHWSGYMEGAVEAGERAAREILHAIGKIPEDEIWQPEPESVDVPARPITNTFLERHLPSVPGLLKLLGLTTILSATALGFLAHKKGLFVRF
In words: biochemical. Here is the method: At first, monoamine oxidase B (MAO-B) was purified from rat brain cortex, and then activity inhibition assay of these derivatives against monoamine oxidase B(MAO-B) was carried out.
MAO-B enzyme preparations were prepared from brain cortex of decapitalized male F344/N rats. The brain cortex in PBS solution was frozen with liquid nitrogen and kept at −80° C. for 3 days. The homogenate was then obtained by centrifugation (14,000 rpm, 10 min) of the frontal cortex in 0.1 M potassium phosphate buffer (pH 7.4) at 4° C. and the supernatant was taken as the enzyme source for MAO. A standard solution containing 0.1 M potassium phosphate buffer and albumin were prepared in different concentration grades. Ten microliters of each solution was taken and added with 200 μl of BCA kit. Following the similar method, the above supernatant from brain cortex was diluted and 10 μl of stock solution taken and added with […] of BCA kit. Both standard and sample solutions were incubated at 37° C. for 30 min. 200 μl of the solutions was added to each well of a 96-well microplate and the protein contents were measured with a fluorescence microplate reader by determining optical density at 595 nm.
To the supernatant (protein content, 80 μg/ml) in 96-well microplate was added with 1 U/ml HRP (Horseradish Peroxidase), […] benzylamine, and 50 μM Amplex red in 0.1 M potassium phosphate buffer followed by the tested sample, which was prepared in 200 μg/ml in DMSO as stock solution. These mixtures were incubated at room temperature for 60 min and optical density was determined by a fluorometric reader. Its IC50 was calculated then with the following formula. IC50: median inhibitory concentration, which is defined in this example as the concentration of a inhibitor that is needed for inhibiting 50% activity of an enzyme. Inhibition (%)=1−[(OD595 of sample/protein−[…] of sample)/OD595 of blank]×100% • OD595: Optical density at 595 nm (wavelength) • protein: protein content of control 3. Statistical Analysis

Assay [2] deals with T2, γ-secretase (Homo sapiens, UniProt P49768).
T2 construct: measure the activity of γ-secretase in T-20 cell line; endogenous in cells; host or cells: T-20 (T-REx293/HEK293 stably transfected with C99-GV/TO and Gal4-Luc)
The experiment in a line: Cell-based γ-secretase assay (luciferase reporter) in T-20 cell line.
Experimental: In this example, a quantitative cell-based assay described in reference (2) and (3) was employed to measure the activity of γ-secretase in T-20 cell line.
Cell lysis and the addition of reagents for luciferase assay were completed simultaneously using the Steady-Glo luciferase assay system (Promega) as described in the manufacturer's instructions. Luciferase signals were determined by a VictorLight microplate luminometer (PerkinElmer).
A quantitative cell-based γ-secretase assay in T-20 cell line described in reference (2) was employed to measure the activity of γ-secretase. In this example, said assay and cell line thereof was used to measure effect of 1,2,3,4-tetrahydroisoquinoline derivatives on the activity of γ-secretase.
T-20 cells were routinely maintained in DMEM supplemented with 10% FBS, 200 μg/ml of hygromycin, 5 μg/ml of blasticidin, and 250 μg/ml of zeocin (DMEM-HZB). The stably transfected T-20 cells were detached from culture dishes by trypsinization, washed with PBS, and resuspended in DMEM-HZB, followed by plating onto 96-well microplates (2×10^4 cells/50 μl/well) and incubating at 37° C. for 24 hours. Preliminarily, compounds diluted in DMEM-HZB were added to a final concentration of 10 μM in the presence of tetracycline (1 μg/ml). Treatments were terminated after incubation at 37° C. for 24 hours by adding directly an equivalent volume of the Steady-Glo luciferase assay reagent (Promega), and measurements of luciferase signals from each well were performed immediately with the VictorLight microplate luminometer) (PerkinElmer). Triplicates of each compound treatment were assayed. Luciferase signal from the stable line without tetracycline induction and compound treatment was referred to as one-fold of activation. Parallel testing with a cell line constitutively expressing only the luciferase reporter gene (e.g., under control of a CMV promoter) was performed as a control.
Briefly, T-20 cell line was induced by tetracycline to express C99-GV protein fragment on cell membrane.

Assay [3] concerns ERK1/2. In words: Assay for extracellular signal-regulated kinase (ERK) activity (Western blot p-ERK1/2 / ERK1/2). Type of assay: cell-based, Human. As to conditions: for Activation of ERK1/2 (p-ERK/ERK, (%)): 10 μM, T-20 cells, positive control = 100, mean ± SD of three experiments. Here is the method: Cell line used in this example were same as those described in example 2.
The activation of the ERKs was measured by using anti-phospho-ERK1/2 and anti-ERK1/2 antibodies (Cell Signaling Technology). In brief, T-20 cells were grown in six-well plates at 5×10^5 cells/well and incubated with culture medium at 37° C. for 18 hours, followed by an additional incubation with culture medium containing 1 μg/ml of tetracycline at 37° C. for 18 hours. Before the experiments, we replaced the medium with DMEM containing 0.5% FBS and treated it with the tested compounds (10 μM each). After treatment, reactions were stopped by placing cells on ice and aspirating off the medium. Cells were harvested and lysed in 50 mM Tris-HCl (pH 8.0), 150 mM NaCl, 5 mM EDTA, 1 mM sodium orthovanadate, 1% Triton X-100, and protease- and phosphatase-inhibitor cocktails. Protein concentration was determined by the BCA assay (Pierce). Each cell lysate, which contained 50 μg proteins, was separated on 12% SDS-polyacrylamide electrophoresis gels, immunoblotted, and identified using anti-phospho-ERK1/2 or anti-ERK1/2 antibody. In this example, T-20 cell line treated with medium containing 1% DMSO and 1 μg/ml of tetracycline was used as positive control group; T-20 cell line treated with medium containing various compounds (10 μM), 1% DMSO and 1 μg/ml of tetracycline were used as test groups for different compounds.
On the technique in general: Immunoblotting shows a protein as a band on a membrane.

Assay [4] relates to soluble amyloid precursor protein α (sAPPα). In words: Effect on secretion of sAPPα in γ-30 cells (Western blot, 6E10 antibody). Type of assay: cell-based, Chinese hamster. As to conditions: 10 μM; for protein content of sAPPα detected by Western blot: FIG. 4A. As to the method:
It is known that monoamine oxidase B (MAO-B) inhibitor can activate directly or indirectly ERK-related pathway, so as to regulate amyloid precursor protein (APP) proteolytic process, which lead to modulate indirectly the secretion of soluble amyloid precursor protein α (sAPPα), and inhibit indirectly the production of insoluble β amyloid-peptides (Aβ). […] Thus, in this example, assay was carried out in γ-30 cells to examine the effect of 1,2,3,4-tetrahydroisoquinoline derivatives (12a, c and d) on the secretion of sAPPα.
As described in reference (3) and (6), briefly described below. PS70 Chinese hamster ovary cell (CHO cell) was used to perform a transfection to obtain γ-30 stably transfected cell line, γ-30 stably transfected cell line was used to express then full length amyloid precursor protein (APP) and human PS1, Aph-1α2, and Pen-2 proteins (Human PS, Aph-1α2, and Pen-2). This cell line could be used as the ideal model cell for detecting α-secretase degradation of amyloid precursor protein (APP).
Each group of corresponding cell lysate in example 5 was prepared to identical protein content. Proteins with different molecular weight were separated by means of electrophoresis on SDS-PAGE and Western Blot assay was carried using anti-Aβ1-17 monoclonal antibody (6E10) (purchased from US Chemicom Co.). In this example, γ-30 cell line treated with medium containing 1% DMSO was used as negative control group, γ-30 cell lines treated with medium containing different compounds (10 μM), 1% DMSO and 1 μg/ml of tetracycline were used as test group for different compounds, respectively.
γ-30 stably transfected cell line expresses full length amyloid precursor protein (APP) and human PS1, Aph-1α2, and Pen-2 proteins. When α-secretase cleavages amyloid precursor protein (APP), soluble amyloid precursor protein α (sAPPα) is formed, which can be used to detect whether a compound has an effect on the secretion of soluble amyloid precursor protein α (sAPPα). To this end, Western blot assay using Aβ1-17 monoclonal antibody (6E10) was carried out to detect soluble amyloid precursor protein α (sAPPα). […] Thereafter, results from Western blot assay were subjected to quantitatively statistical analysis.

Where [5] appears, read: T20, read-out: inhibition of the activity of γ-secretase compared with positive control group.

As usually defined, the IC50 is the concentration that gives 50% inhibition. `C#CCN1CCc2ccc(OC(=O)N3CCOCC3)cc2C1` [Compound 11d, 7-(1-Morpholinecarbamoyloxy)-N-propargyl-1,2,3,4-tetrahydroisoquinoline]: the IC50 in assay [1] turned out to be 18.7 ± 1.6 µM.

One may read the inhibition as the percentage by which the read-out fell short of the control. Regarding `C#CCN[C@@H]1CCc2ccccc21` [Rasagiline, rasagiline, reference compound], the inhibition at 10 µM in assay [2] (T20, 10 μM, T-20 cells, 24 hours, tetracycline 1 μg/ml, FIG. 2, read-out: inhibition of the activity of γ-secretase compared with positive control group) was 6 to 15%. Besides, the “Activation of ERK1/2 (p-ERK/ERK, (%))” value in assay [3] stood at 131 ± 14%.

On to `O=C(Oc1ccc2c(c1)CN(CC1CC1)CC2)N1CCCCC1` [Compound 12c, 7-(1-Piperidinecarbamoyloxy)-N-cyclopropylmethyl-1,2,3,4-tetrahydroisoquinoline], for which the inhibition at 10 µM in assay [2] (setting [5]) was in the range of 35 to 72%. 11.6 ± 0.7 µM corresponded to half-maximal inhibition in assay [1] (IC50). Besides, the “ability to activate ERK relative to rasagiline test group” value in assay [3] (10 μM each) amounted to 1.2 times. The “Activation of ERK1/2 (p-ERK/ERK, (%))” value in assay [3] amounted to 155 ± 28 %. The “protein content of sAPPα detected by Western blot” value (shortened to “protein content of sAPPα detected”) in assay [4] is on record as “higher than that of negative control group”. In assay [4] (FIG. 4B), the “promotion of sAPPα secretion compared with rasagiline test group” value was “better promotion effect than rasagiline test group” and the “relative sAPPα secretion (quantified Western blot)” value (shortened to “relative sAPPα secretion”) is on record as “could promote the secretion”.

As for `CCN(C)C(=O)Oc1ccc2c(c1)CN(CC1CC1)CC2` [Compound 12a, 7-(N-Methyl-N-ethylcarbamoyloxy)-N-cyclopropylmethyl-1,2,3,4-tetrahydroisoquinoline], the inhibition at 10 µM in assay [2] (setting [5]) was 35 to 72%. Also, the IC50 in assay [1] came out at 12.8 ± 2 µM. For the same compound, in assay [3], the “Activation of ERK1/2 (p-ERK/ERK, (%))” value is listed as 131 ± 10%. The “protein content of sAPPα detected” value in assay [4] was “higher than that of negative control group”. In assay [4] (FIG. 4B), the “relative sAPPα secretion” value was “could promote the secretion”.

In turn, `C#CCN1CCc2ccc(OC(=O)N3CCCC3)cc2C1` [Compound 11b, 7-(1-Pyrrolidinecarbamoyloxy)-N-propargyl-1,2,3,4-tetrahydroisoquinoline] displayed an IC50 in assay [1] of 13.9 ± 0.5 µM.

`C#CCN1CCc2ccc(OC(=O)N3CCCCC3)cc2C1` [Compound 11c, 7-(1-Piperidinecarbamoyloxy)-N-propargyl-1,2,3,4-tetrahydroisoquinoline] yielded an IC50 in assay [1] of 15.7 ± 2.2 µM.

As to `O=C(Oc1ccc2c(c1)CN(CC1CC1)CC2)N1CCOCC1` [Compound 12d, 7-(1-Morpholinecarbamoyloxy)-N-cyclopropylmethyl-1,2,3,4-tetrahydroisoquinoline], the inhibition at 10 µM in assay [2] (setting [5]) was in the range of 35 to 72%. In assay [1], this compound showed an IC50 of 18.5 ± 0.8 µM. In addition, the “Activation of ERK1/2 (p-ERK/ERK, (%))” value in assay [3] is on record as 138 ± 39%. For the same compound, in assay [4], the “protein content of sAPPα detected” value is reported as “higher than that of negative control group”. Moreover, the “relative sAPPα secretion” value in assay [4] (FIG. 4B) was “could promote the secretion”.

With `C#CCN1CCc2ccc(OC(=O)N(C)CC)cc2C1` [Compound 11a, 7-(N-Methyl-N-ethylcarbamoyloxy)-N-propargyl-1,2,3,4-tetrahydroisoquinoline], it took 21.5 ± 1 µM to reach half-maximal inhibition in assay [1] (IC50).

In turn, `O=C(Oc1ccc2c(c1)CN(CC1CC1)CC2)N1CCCC1` [Compound 12b, 7-(1-Pyrrolidinecarbamoyloxy)-N-cyclopropylmethyl-1,2,3,4-tetrahydroisoquinoline] gave an IC50 in assay [1] of 14.9 ± 1.1 µM.
